Measurements: ChEMBL document CHEMBL1201862, “PubChem BioAssay data set” (2004)
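Exposure lasted 48 hours, with cells grown in 96-well plates and compounds tested at five concentrations. GI50 = concentration required for 50% inhibition of growth.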 The source made the active and inactive calls. No stated cut-off is given here; in the data, active = GI50 up to about 1.1 µM and inactive = higher.

Key:
Experiment in all cases: NCI-60 cell line screen, 48 h
[1] = tested on: DMS-273
[2] = tested on: DMS-114
[3] = tested on: SNB-78
[4] = tested on: M19-MEL
[5] = tested on: XF498
[6] = tested on: DLD-1
[7] = tested on: LXFL 529
[8] = tested on: HOP-18
[9] = tested on: RXF 631

SMILES: OC1[C@H]([C@H]2CCCC[C@@H]2O)CCC[C@@H]1[C@@H]1CCCC[C@H]1O (stereo partly specified)
- GI50 [1]: > 100 µM (inactive)
- GI50 [2]: > 100 µM (inactive)
- GI50 [3]: 48.2 µM (inactive)
- GI50 [4]: > 100 µM (inactive)
- GI50 [5]: > 100 µM (inactive)
- GI50 [6]: > 100 µM (inactive)
- GI50 [7]: > 100 µM (inactive)
- GI50 [8]: > 100 µM (inactive)

SMILES: COc1ccc(NC(=O)C2C(=O)N(c3ccc(OC)cc3)C(=O)/C2=N/O)cc1 (stereo unspecified)
- GI50 [1]: 26.8 µM (inactive)
- GI50 [2]: 35.6 µM (inactive)
- GI50 [3]: 46.8 µM (inactive)
- GI50 [4]: 26.5 µM (inactive)
- GI50 [5]: 14 µM (inactive)
- GI50 [6]: 64.4 µM (inactive)
- GI50 [7]: 25.2 µM (inactive)
- GI50 [8]: 17.9 µM (inactive)

SMILES: CC1(OCc2ccccc2)C(=O)N2C1N(C(=O)OCc1ccccc1)CC2(C)C (stereo unspecified)
- GI50 [1]: 53.6 µM (inactive)
- GI50 [2]: 31.3 µM (inactive)
- GI50 [4]: 32.1 µM (inactive)
- GI50 [5]: 24.8 µM (inactive)
- GI50 [6]: 54.3 µM (inactive)
- GI50 [7]: 31.6 µM (inactive)

SMILES: O=C(CN1CCN(c2ccccc2)CC1)N1CCc2c([nH]c3ccccc23)C1c1cccnc1 (stereo unspecified)
- GI50 [1]: 49 µM (inactive)
- GI50 [2]: 26.9 µM (inactive)
- GI50 [3]: 13.5 µM (inactive)
- GI50 [4]: > 95.9 µM (inactive)
- GI50 [5]: 24.1 µM (inactive)
- GI50 [9]: 33.3 µM (inactive)
- GI50 [6]: > 53 µM (inactive)
- GI50 [7]: 71.9 µM (inactive)
- GI50 [8]: > 100 µM (inactive)

SMILES: Cn1c(=O)ccc2cc(C(=O)c3ccccc3)ccc21
- GI50 [1]: 35.3 µM (inactive)
- GI50 [2]: 22.1 µM (inactive)
- GI50 [4]: 55.3 µM (inactive)
- GI50 [5]: 16.7 µM (inactive)
- GI50 [9]: 64.3 µM (inactive)
- GI50 [6]: > 100 µM (inactive)
- GI50 [7]: 45.8 µM (inactive)
- GI50 [8]: 36.6 µM (inactive)

SMILES: Oc1cc(-c2cccc(Cl)c2)nc2cc3c(cc12)OCO3
- GI50 [1]: 0.327 µM (active)
- GI50 [2]: 0.296 µM (active)
- GI50 [4]: 0.327 µM (active)
- GI50 [5]: 1.4 µM (inactive)
- GI50 [6]: 0.245 µM (active)
- GI50 [7]: 0.19 µM (active)
- GI50 [8]: 1.5 µM (inactive)

SMILES: c1ccc(CN2CCc3[nH]c4ccccc4c3C2)cc1
- GI50 [1]: 56.2 µM (inactive)
- GI50 [2]: 19.8 µM (inactive)
- GI50 [3]: 35.6 µM (inactive)
- GI50 [4]: 26.5 µM (inactive)
- GI50 [5]: 24.2 µM (inactive)
- GI50 [9]: 18.8 µM (inactive)
- GI50 [6]: 37.8 µM (inactive)
- GI50 [7]: 22.9 µM (inactive)
- GI50 [8]: 99.8 µM (inactive)

SMILES: CCN(CC)CC(C)(C)C(=O)/C=C/c1ccc(/C=C/C(=O)C(C)(C)CN(CC)CC)cc1
- GI50 [1]: 0.234 µM (active)
- GI50 [2]: 0.266 µM (active)
- GI50 [3]: 1.41 µM (inactive)
- GI50 [4]: 0.687 µM (active)
- GI50 [5]: 0.317 µM (active)
- GI50 [6]: 0.341 µM (active)
- GI50 [7]: 0.188 µM (active)

SMILES: Cn1nc2ccc3nccc(NCCNCCO)c3c2n1
- GI50 [3]: 36.2 µM (inactive)
- GI50 [4]: 40.4 µM (inactive)
- GI50 [5]: 35 µM (inactive)
- GI50 [6]: 33.2 µM (inactive)
- GI50 [7]: 39.2 µM (inactive)

SMILES: CC(=O)O[C@@]12CO[C@@H]1C[C@H](O)[C@@]1(C)C(=O)[C@H](O)C3=C(C)[C@@H](OC(=O)[C@H](O)[C@@H](NC(=O)OC(C)(C)C)c4ccccc4)C[C@@](O)([C@@H](OC(=O)c4ccccc4)[C@H]21)C3(C)C [DOCETAXEL]
- GI50 [1]: < 0.01 µM (active)
- GI50 [2]: < 0.01 µM (active)
- GI50 [4]: < 0.01 µM (active)
- GI50 [9]: < 0.01 µM (active)
- GI50 [6]: < 0.01 µM (active)
- GI50 [7]: < 0.01 µM (active)
- GI50 [8]: 29.9 µM (inactive)

SMILES: CC(=O)/C(=N\O)C(=O)NCc1ccccc1
- GI50 [1]: > 100 µM (inactive)
- GI50 [2]: 29.4 µM (inactive)
- GI50 [3]: > 100 µM (inactive)
- GI50 [9]: > 100 µM (inactive)
- GI50 [6]: > 100 µM (inactive)
- GI50 [7]: > 100 µM (inactive)
- GI50 [8]: > 100 µM (inactive)

SMILES: Nc1nc(O)c2c(ncn2CC(O)CO)n1 (stereo unspecified)
- GI50 [1]: > 100 µM (inactive)
- GI50 [2]: > 100 µM (inactive)
- GI50 [3]: > 100 µM (inactive)
- GI50 [4]: > 100 µM (inactive)
- GI50 [9]: > 100 µM (inactive)
- GI50 [6]: > 100 µM (inactive)
- GI50 [7]: > 100 µM (inactive)
- GI50 [8]: > 100 µM (inactive)

SMILES: c1ccc2c(c1)N=C(c1cccc3ccccc13)CC(c1ccc3c(c1)OCO3)S2 (stereo unspecified)
- GI50 [1]: > 100 µM (inactive)
- GI50 [3]: > 100 µM (inactive)
- GI50 [4]: > 100 µM (inactive)
- GI50 [5]: > 100 µM (inactive)
- GI50 [9]: > 100 µM (inactive)
- GI50 [6]: > 100 µM (inactive)
- GI50 [7]: > 100 µM (inactive)
- GI50 [8]: > 100 µM (inactive)

SMILES: CC1=C(C(=O)Nc2ccccc2)C(c2ccc(N(C)C)cc2)C(C(=O)Nc2ccccc2)=C(C)N1
- GI50 [1]: 0.428 µM (active)
- GI50 [2]: 0.211 µM (active)
- GI50 [3]: > 37.1 µM (inactive)
- GI50 [4]: 0.685 µM (active)
- GI50 [5]: > 100 µM (inactive)
- GI50 [6]: 8.36 µM (inactive)
- GI50 [7]: 0.175 µM (active)
- GI50 [8]: > 100 µM (inactive)

SMILES: CCN(CC)C(=O)N1CCN(C=S)CC1
- GI50 [1]: > 100 µM (inactive)
- GI50 [2]: > 100 µM (inactive)
- GI50 [3]: > 100 µM (inactive)
- GI50 [4]: > 100 µM (inactive)
- GI50 [6]: > 100 µM (inactive)
- GI50 [7]: > 100 µM (inactive)
- GI50 [8]: > 100 µM (inactive)

SMILES: [O-][S+](c1ccc(O)cc1)c1ccc(O)cc1
- GI50 [1]: > 100 µM (inactive)
- GI50 [2]: > 100 µM (inactive)
- GI50 [4]: > 100 µM (inactive)
- GI50 [5]: > 100 µM (inactive)
- GI50 [9]: > 100 µM (inactive)
- GI50 [6]: > 100 µM (inactive)

SMILES: CCCCCCCCCCSS(=O)(=O)c1ccc(C)cc1
- GI50 [1]: 9.27 µM (inactive)
- GI50 [2]: 8.69 µM (inactive)
- GI50 [3]: 10.9 µM (inactive)
- GI50 [4]: 11.2 µM (inactive)
- GI50 [5]: 13.3 µM (inactive)
- GI50 [9]: 7.28 µM (inactive)
- GI50 [6]: 12.5 µM (inactive)
- GI50 [7]: 13.6 µM (inactive)
- GI50 [8]: 17.9 µM (inactive)

SMILES: CCOC(=O)C(C)(C)Oc1ccc2c(-c3ccc(Cl)cc3)c(-c3ccc(Cl)cc3)c(=O)oc2c1
- GI50 [1]: > 100 µM (inactive)
- GI50 [2]: > 100 µM (inactive)
- GI50 [4]: > 100 µM (inactive)
- GI50 [9]: > 100 µM (inactive)
- GI50 [6]: > 100 µM (inactive)
- GI50 [7]: > 100 µM (inactive)

SMILES: NNC(=O)C(=O)N/N=C1/CCCC1C(=O)CCC(=O)Nc1ccc(Cl)cc1 (stereo unspecified)
- GI50 [1]: 37.3 µM (inactive)
- GI50 [2]: 63 µM (inactive)
- GI50 [3]: > 100 µM (inactive)
- GI50 [4]: 89.3 µM (inactive)
- GI50 [5]: > 100 µM (inactive)
- GI50 [9]: > 100 µM (inactive)
- GI50 [6]: > 100 µM (inactive)
- GI50 [7]: 20.6 µM (inactive)
- GI50 [8]: > 100 µM (inactive)

SMILES: CCOc1ccccc1Nc1nc(C)c(C(=O)CC(=O)C(=O)Nc2ccccc2)s1
- GI50 [1]: 54.2 µM (inactive)
- GI50 [2]: 35.5 µM (inactive)
- GI50 [3]: > 100 µM (inactive)
- GI50 [4]: 36.5 µM (inactive)
- GI50 [5]: 31.6 µM (inactive)
- GI50 [6]: 37.3 µM (inactive)
- GI50 [7]: 43.3 µM (inactive)
- GI50 [8]: > 100 µM (inactive)

SMILES: CCCCCCCCCC[C@@H](O)[C@@H]1CC[C@@H]([C@@H]2CC[C@@H]([C@@H](O)CCCCCCCCCC[C@H](O)CC3=CC(C)OC3=O)O2)O1 (stereo partly specified)
- GI50 [1]: 2.36 µM (inactive)
- GI50 [2]: < 0.01 µM (active)
- GI50 [3]: 3.8 µM (inactive)
- GI50 [4]: 2.22 µM (inactive)
- GI50 [9]: 1.97 µM (inactive)
- GI50 [6]: 3.31 µM (inactive)
- GI50 [7]: 3.82 µM (inactive)

SMILES: O=[N+]([O-])c1ccc(-c2ccc(C3=Nn4c(CNc5ccccc5Cl)nnc4SC3)o2)cc1
- GI50 [1]: > 100 µM (inactive)
- GI50 [3]: > 100 µM (inactive)
- GI50 [4]: > 100 µM (inactive)
- GI50 [5]: > 100 µM (inactive)
- GI50 [6]: > 100 µM (inactive)
- GI50 [7]: 82.4 µM (inactive)

SMILES: CN(C)CCNC(=O)c1cccc2c1nc(-c1ccc(F)cc1)c1ccccc12
- GI50 [1]: 2.15 µM (inactive)
- GI50 [2]: 4.42 µM (inactive)
- GI50 [3]: 10.7 µM (inactive)
- GI50 [4]: 5.52 µM (inactive)
- GI50 [6]: 2.45 µM (inactive)
- GI50 [8]: 14.4 µM (inactive)

SMILES: CC(=O)N1CCC2(C=Nc3ccccc32)CC1
- GI50 [1]: > 100 µM (inactive)
- GI50 [2]: > 100 µM (inactive)
- GI50 [3]: > 100 µM (inactive)
- GI50 [4]: > 100 µM (inactive)
- GI50 [5]: > 100 µM (inactive)
- GI50 [6]: > 100 µM (inactive)
- GI50 [7]: > 100 µM (inactive)
- GI50 [8]: > 100 µM (inactive)

SMILES: O=C(Cc1ccccc1)NN1C(=O)C(Cl)C1c1cccc(O)c1 (stereo unspecified)
- GI50 [1]: 16.1 µM (inactive)
- GI50 [2]: 13.8 µM (inactive)
- GI50 [3]: 15.8 µM (inactive)
- GI50 [4]: 18 µM (inactive)
- GI50 [5]: 20.1 µM (inactive)
- GI50 [6]: 14.8 µM (inactive)
- GI50 [7]: 10.6 µM (inactive)
- GI50 [8]: 20.6 µM (inactive)

SMILES: COc1ccc(/C=C\c2cc(OC)c(OC)c(OC)c2)cc1OC
- GI50 [1]: 0.0207 µM (active)
- GI50 [2]: 0.105 µM (active)
- GI50 [3]: 0.0171 µM (active)
- GI50 [5]: 0.122 µM (active)
- GI50 [9]: 0.195 µM (active)
- GI50 [6]: 0.173 µM (active)
- GI50 [7]: 0.186 µM (active)
- GI50 [8]: 0.411 µM (active)

SMILES: Cc1ccc(NC(=O)/C(Cl)=C(/Cl)C(=O)O)cc1
- GI50 [1]: 22.1 µM (inactive)
- GI50 [2]: 20 µM (inactive)
- GI50 [3]: 30.1 µM (inactive)
- GI50 [4]: 16 µM (inactive)
- GI50 [9]: 24.4 µM (inactive)
- GI50 [6]: 16.4 µM (inactive)
- GI50 [7]: 11.9 µM (inactive)
- GI50 [8]: 19.1 µM (inactive)
